Laboratory results as given in patent US20220251105A1, “METHODS OF TREATING A MK2-MEDIATED DISORDER” (Celgene CAR LLC, priority 2019, published 2022).

Assays:
[1] = toxicokinetics, 28-day mouse study; assay type: in vivo; settings: mice; for AUC / Cmax: male, Crl:CD1 (ICR), mouse, plasma, po;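 on AUCLST: AUC to the last measurable time point (AUClast)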
From the text: There were no notable sex-related differences in Compound 1 exposure.
Additionally, toxicokinetic animals received the vehicle or compound in the same manner and dose levels as the main study groups.

[2] = system: cynomolgus monkeys (Macaca fascicularis); assay: pivotal 28-day repeat-dose toxicity study in monkeys; assay type: in vivo, cynomolgus monkey
[3] = toxicokinetics, 28-day monkey study; assay type: in vivo, cynomolgus monkey; settings: for Cmax / AUC: po; for dose proportionality of systemic exposure (AUCLST): monkeys
[4] = Phase 1 first in human study, pharmacokinetics; assay type: in vivo
[5] = 91-day repeat-dose toxicology study with mice; assay type: in vivo, mouse; settings: mouse, in vivo, 91-day
mice = assay: 91-day repeat-dose toxicology study with mice; assay type: in vivo, mouse; settings: 750 mg/kg/day
[6] = exposure in 91-day mouse toxicology study; settings: for AUC: mouse, plasma
[7] = 100 mg/kg/day, Study Day 21, male, 100 mg/kg/day
[8] = 750 mg/kg/day, Study Day 1, male, 750 mg/kg/day
[9] = 750 mg/kg/day, Study Day 21, male, 750 mg/kg/day
[10] = cynomolgus monkey, in vivo, 150 mg/kg/day

## CCOCc1cnc(Cl)nc1Oc1ccc2c(ccc3sc4c(c32)NC[C@@H](C)NC4=O)n1 [Compound 1]
[1]; [7]
  AUC: 24900 ng·h/mL
  Cmax: 11700 ng/mL
[1]; [8]
  AUC: 211000 ng·h/mL
  Cmax: 29800 ng/mL
[1]; [9]
  AUC: 92800 ng·h/mL
  Cmax: 19400 ng/mL
[1]; Day 1, 15 to 750 mg/kg/day
  dose proportionality of systemic exposure (AUCLST): approximately dose-proportional manner
[1]; Day 21, 15 to 750 mg/kg/day
  dose proportionality of systemic exposure (AUCLST): less than dose-proportional manner
[2]; cynomolgus monkey, in vivo, 50 mg/kg/day
  clinical observation, stool (non-adverse): discolored and/or watery stool
[2]; [10]
  clinical observation, urine (non-adverse): dose-dependent incidents of discolored urine
  microscopic finding, skeletal muscle (non-adverse): Minimal myofiber degeneration in skeletal muscle
[2]; monkeys, 50, 150, 375 mg/kg/day, 28 days
  mortality, body weight, ophthalmic examinations, electrocardiograms, clinical pathology, macroscopic observations, organ weights: no compound-related effects
[3]; cynomolgus monkey, plasma, oral, female monkeys, read-out: AUC0-24, steady state exposure at the NOAEL
  AUC(0-t): ~7840 ng·h/mL
[3]; cynomolgus monkey, plasma, monkey, Study Day 1, male, 375 mg/kg/day
  Cmax: 1960 ng/mL
[3]; cynomolgus, cynomolgus monkey, plasma, monkey, Study Day 21, female, 375 mg/kg/day
  Cmax: 810 ng/mL
[3]; cynomolgus, cynomolgus monkey, plasma, monkey, Study Day 21, male, 375 mg/kg/day
  Cmax: 2340 ng/mL
[3]; female, cynomolgus monkey, plasma, 15 mg/kg/day, monkey, Study Day 1, female, 15 mg/kg/day (so in the source)
  Cmax: 862 ng/mL
[3]; female, cynomolgus monkey, plasma, 15 mg/kg/day, monkey, Study Day 1, female, 15 mg/kg/day (so in the source), read-out: AUCLST
  AUC: 3090 ng·h/mL
[3]; female, cynomolgus monkey, plasma, 150 mg/kg/day, monkey, Study Day 1, female, 150 mg/kg/day
  Cmax: 1390 ng/mL
[3]; female, cynomolgus monkey, plasma, 150 mg/kg/day, monkey, Study Day 1, female, 150 mg/kg/day, read-out: AUCLST
  AUC: 6330 ng·h/mL
[3]; female, cynomolgus monkey, plasma, 150 mg/kg/day, monkey, Study Day 21, female, 150 mg/kg/day, read-out: AUCLST
  AUC: 7840 ng·h/mL
[3]; female, cynomolgus monkey, plasma, 375 mg/kg/day, monkey, Study Day 1, female, 375 mg/kg/day, read-out: AUCLST
  AUC: 16700 ng·h/mL
[3]; female, cynomolgus monkey, plasma, 375 mg/kg/day, monkey, Study Day 21, female, 375 mg/kg/day, read-out: AUCLST
  AUC: 4220 ng·h/mL
[3]; female, cynomolgus, cynomolgus monkey, plasma, 15 mg/kg/day, monkey, Study Day 21, female, 15 mg/kg/day (so in the source)
  Cmax: 818 ng/mL
[3]; female, cynomolgus, cynomolgus monkey, plasma, 15 mg/kg/day, monkey, Study Day 21, female, 15 mg/kg/day (so in the source), read-out: AUCLST
  AUC: 2460 ng·h/mL
[3]; female, cynomolgus, cynomolgus monkey, plasma, 150 mg/kg/day, monkey, Study Day 21, female, 150 mg/kg/day
  Cmax: 1620 ng/mL
[3]; male, cynomolgus monkey, plasma, 15 mg/kg/day, monkey, Study Day 1, male, 15 mg/kg/day (so in the source)
  Cmax: 623 ng/mL
[3]; male, cynomolgus monkey, plasma, 15 mg/kg/day, monkey, Study Day 1, male, 15 mg/kg/day (so in the source), read-out: AUCLST
  AUC: 1750 ng·h/mL
[3]; male, cynomolgus monkey, plasma, 15 mg/kg/day, monkey, Study Day 21, male, 15 mg/kg/day (so in the source)
  Cmax: 465 ng/mL
[3]; male, cynomolgus monkey, plasma, 150 mg/kg/day, monkey, Study Day 1, male, 150 mg/kg/day
  Cmax: 1240 ng/mL
[3]; male, cynomolgus monkey, plasma, 150 mg/kg/day, monkey, Study Day 1, male, 150 mg/kg/day, read-out: AUCLST
  AUC: 5840 ng·h/mL
[3]; male, cynomolgus monkey, plasma, 150 mg/kg/day, monkey, Study Day 21, male, 150 mg/kg/day
  Cmax: 674 ng/mL
[3]; male, cynomolgus monkey, plasma, 375 mg/kg/day, male monkeys (375 mg/kg/day), steady-state, read-out: NOAEL with respect to AUCLST
  AUC: 8790 ng·h/mL
[3]; male, cynomolgus monkey, plasma, 375 mg/kg/day, monkey, Study Day 1, male, 375 mg/kg/day, read-out: AUCLST
  AUC: 14100 ng·h/mL
[3]; male, cynomolgus, cynomolgus monkey, plasma, 15 mg/kg/day, monkey, Study Day 21, male, 15 mg/kg/day (so in the source), read-out: AUCLST
  AUC: 1280 ng·h/mL
[3]; male, cynomolgus, cynomolgus monkey, plasma, 150 mg/kg/day, monkey, Study Day 21, male, 150 mg/kg/day, read-out: AUCLST
  AUC: 3950 ng·h/mL
[3]; male, cynomolgus, cynomolgus monkey, plasma, 375 mg/kg/day, monkey, Study Day 21, male, 375 mg/kg/day, read-out: AUCLST
  AUC: 8790 ng·h/mL
[3]; Day 1, 50 to 375 mg/kg/day
  dose proportionality of systemic exposure (AUCLST): approximately dose-proportional manner
[3]; Day 20, 50 to 375 mg/kg/day
  dose proportionality of systemic exposure (AUCLST): less than dose-proportional manner
[4]; Day 14, multiple daily doses 10 mg to 150 mg
  dose proportionality of Cmax and AUC: approximately dose-proportional manner
[4]; current capsule formulation, fed vs fasted
  effect of food on PK: limited effect
[4]; daily dosing for 14 days
  accumulation: limited to no observed accumulation
[4]; human, in vivo, oral, humans, 150 mg, read-out: observed AUCLST
  AUC: 1360 ng·h/mL
[4]; human, plasma, oral, Day 14, multiple daily doses 10 mg to 150 mg, read-out: t½, geometric mean
  half-life at 14 days: 1.96 to 4.39 h
[4]; human, plasma, oral, multiple daily doses, 10 mg to 150 mg
  Tmax at 14 days: 1 to 2.5 h
[4]; human, plasma, single oral dose, 3 mg to 400 mg, read-out: median Tmax
  Tmax: 1 to 3 h
[4]; human, plasma, single oral dose, 3 mg to 400 mg, read-out: terminal elimination half-life (t½), geometric mean
  half-life: 1.66 to 6.95 h
[4]; prediction before food effect part
  predicted human bioavailability: 25%
[4]; single oral dose, 3 mg to 400 mg
  dose proportionality of Cmax and AUC: approximately dose proportional manner
[5]
  NOAEL at 91 days: 100 mg/kg/day
mice
  finding on which the NOAEL was based: microscopic findings in the heart
[6]; mouse NOAEL AUCLST vs human 150 mg AUCLST
  margin of human 150 mg exposure below the mouse NOAEL: 21 fold
[6]; 100 mg/kg/day
  AUC: 28800 ng·h/mL
[6]; 750 mg/kg/day
  AUC: 144000 ng·h/mL
